According to patent publication US20260256792A1, “TREATMENT OF CHRONIC SPONTANEOUS URTICARIA BY ADMINISTERING (R)-2-[3-[4-AMINO-3-(2-FLUORO-4-PHENOXY-PHENYL)PYRAZOLO[3,4-D]PYRIMIDIN-1-YL]PIPERIDINE-1-CARBONYL]-4-METHYL-4-[4-(OXETAN-3-YL)PIPERAZIN-1-YL]PENT-2-ENENITRILE” (priority 2023, published 2026):

Tested on: moderate-to-severe chronic spontaneous urticaria (CSU)
Assay: Phase 2 CSU study: urticaria activity score over 7 days (UAS7)
Assay type: in vivo, human
Parameters: key to UAS7 Median / UAS7 Change from baseline Median / UAS7 change from baseline, Q1 / UAS7 change from baseline, Q3 / UAS7 change from baseline, Max / UAS7 Change from baseline LS Mean (SE): UAS7 points; daily UAS score ranges 0–6 points/day, over 7 days
Description: The study comprises a 12 week, randomized, double-blind, placebo-controlled, multi-center, dose-ranging efficacy and safety phase, followed by a 40 week open label extension (OLE) phase (see FIG. 1). The study consists of three phases and an optional OLE phase. […] Clinically, CSU is characterized by the spontaneous and recurrent appearance of pruritic hives. The proposed primary endpoints were the UAS7 at Week 12 in EU and EU reference countries and the ISS7 in the US. Regardless of where a participant was from, all assessments were the same. The UAS7 score is a composite score containing both the HSS7 and the ISS7. This allowed a global assessment of the two key components of urticaria: hives and itch. […] The UAS is a validated PRO measure. […] The daily UAS scores range from 0 to 6 point/day. […] Patients were to complete the UAS using the e-diary. […] The following secondary endpoints were to be analyzed using the same approach as for the primary endpoint: • Change from baseline in UAS7 at Week 4 • Change from baseline in UAS7 at Week 12 (for US and US reference countries) • Change from baseline in ISS7 at Week 12 (except US and US reference countries) • Change from baseline in HSS7 at Week 12 The following responder secondary endpoints were to be analyzed using the Cochran-Mantel-Haenszel test adjusted by region: • Proportion of participants with UAS7<6 at Week 12 • Proportion of participants with UAS7=0 at Week 12 Participants who received selected prohibited medications and/or rescue medications were to be considered as non-responders for time points after the medication usage. For other participants, all available data including those collected during the off-treatment period were to be used to determine the responder/non-responder status. Missing data were to be considered as non-responders.

[1] = Week 9, 400 mg QPM, Prior Omalizumab Use
[2] = Week 9, 400 mg QPM, omalizumab-naive participants
[3] = Week 9, 400 mg TID, ITT population
[4] = Week 9, 400 mg TID, Omalizumab-Naïve
[5] = Week 9, 400 mg TID, Prior Omalizumab Use
[6] = Week 9, 400 mg TID, omalizumab-naive participants
[7] = Week 10, 400 mg BID, ITT population
[8] = Week 10, 400 mg BID, Omalizumab-Naïve
[9] = Week 10, 400 mg BID, Prior Omalizumab Use
[10] = Week 10, 400 mg BID, omalizumab-naive participants
[11] = Week 10, 400 mg QPM, ITT population
[12] = Week 10, 400 mg QPM, Omalizumab-Naïve
[13] = Week 10, 400 mg QPM, Prior Omalizumab Use
[14] = Week 10, 400 mg QPM, omalizumab-naive participants

CC(C)(C=C(C#N)C(=O)N1CCC[C@@H](n2nc(-c3ccc(Oc4ccccc4)cc3F)c3c(N)ncnc32)C1)N1CCN(C2COC2)CC1 [rilzabrutinib, (R)-2-[3-[4-amino-3-(2-fluoro-4-phenoxy-phenyl)pyrazolo[3,4-d]pyrimidin-1-yl]piperidine-1-carbonyl]-4-methyl-4-[4-(oxetan-3-yl)piperazin-1-yl]pent-2-enenitrile]
UAS7 Change from baseline Mean (SD) [1]: −23.00 (NC)
UAS7 Change from baseline Median [1]: −23.00
UAS7 Mean (SD) [1]: 18.00 (NC)
UAS7 Median [1]: 18.00
UAS7 Percent change from baseline Mean (SD) [1]: −56.10 (NC) %
UAS7 Percent change from baseline Median [1]: −56.10%
Non-responder, UAS7 reduction from baseline of 10 points or more [2]: 20 (54.1) n (%)
OR for rilzabrutinib vs. placebo, UAS7 reduction of 10 points or more [2]: 1.522
RRD (%) for rilzabrutinib vs. placebo, UAS7 reduction of 10 points or more [2]: 9.7 %
Responder, UAS7 reduction from baseline of 10 points or more [2]: 17 (45.9) n (%)
Non-responder, UAS7 reduction from baseline of 10 points or more [3]: 13 (31.7) n (%)
OR for rilzabrutinib vs. placebo, UAS7 reduction of 10 points or more [3]: 3.243
RRD (%) for rilzabrutinib vs. placebo, UAS7 reduction of 10 points or more [3]: 26.2 %
Responder, UAS7 reduction from baseline of 10 points or more [3]: 28 (68.3) n (%)
UAS7 Change from baseline Mean (SD) [4]: −17.88 (11.04)
UAS7 Change from baseline Median [4]: −17.00
UAS7 Mean (SD) [4]: 12.57 (9.72)
UAS7 Percent change from baseline Mean (SD) [4]: −57.42 (32.58) %
UAS7 Percent change from baseline Median [4]: −60.00%
UAS7 Change from baseline Median [5]: −24.92
UAS7 Median [5]: 4.00
UAS7 Percent change from baseline Mean (SD) [5]: −77.44 (25.29) %
UAS7 Percent change from baseline Median [5]: −85.78%
Non-responder, UAS7 reduction from baseline of 10 points or more [6]: 12 (34.3) n (%)
OR for rilzabrutinib vs. placebo, UAS7 reduction of 10 points or more [6]: 3.460
RRD (%) for rilzabrutinib vs. placebo, UAS7 reduction of 10 points or more [6]: 29.2 %
Responder, UAS7 reduction from baseline of 10 points or more [6]: 23 (65.7) n (%)
Non-responder, UAS7 reduction from baseline of 10 points or more [7]: 20 (48.8) n (%)
RRD (%) for rilzabrutinib vs. placebo, UAS7 reduction of 10 points or more [7]: 2.8 %
Responder, UAS7 reduction from baseline of 10 points or more [7]: 21 (51.2) n (%)
UAS7 Change from baseline Mean (SD) [8]: −14.01 (11.59)
UAS7 Change from baseline Median [8]: −14.50
UAS7 Mean (SD) [8]: 15.22 (14.36)
UAS7 Median [8]: 13.50
UAS7 Percent change from baseline Mean (SD) [8]: −50.88 (41.19) %
UAS7 Percent change from baseline Median [8]: −51.79%
UAS7 Change from baseline Mean (SD) [9]: −19.40 (18.66)
UAS7 Change from baseline Median [9]: −23.00
UAS7 Mean (SD) [9]: 12.60 (14.98)
UAS7 Median [9]: 4.00
UAS7 Percent change from baseline Mean (SD) [9]: −55.61 (51.03) %
UAS7 Percent change from baseline Median [9]: −85.19%
Non-responder, UAS7 reduction from baseline of 10 points or more [10]: 17 (48.6) n (%)
OR for rilzabrutinib vs. placebo, UAS7 reduction of 10 points or more [10]: 1.312
RRD (%) for rilzabrutinib vs. placebo, UAS7 reduction of 10 points or more [10]: 7.2 %
Responder, UAS7 reduction from baseline of 10 points or more [10]: 18 (51.4) n (%)
Non-responder, UAS7 reduction from baseline of 10 points or more [11]: 19 (50.0) n (%)
OR for rilzabrutinib vs. placebo, UAS7 reduction of 10 points or more [11]: 1.159
RRD (%) for rilzabrutinib vs. placebo, UAS7 reduction of 10 points or more [11]: 3.5 %
Responder, UAS7 reduction from baseline of 10 points or more [11]: 19 (50.0) n (%)
UAS7 Change from baseline Mean (SD) [12]: −11.73 (10.20)
UAS7 Change from baseline Median [12]: −10.00
UAS7 Mean (SD) [12]: 20.27 (10.69)
UAS7 Median [12]: 17.00
UAS7 Percent change from baseline Mean (SD) [12]: −36.15 (29.79) %
UAS7 Percent change from baseline Median [12]: −36.70%
UAS7 Change from baseline Mean (SD) [13]: −25.00 (NC)
UAS7 Change from baseline Median [13]: −25.00
UAS7 Mean (SD) [13]: 16.00 (NC)
UAS7 Median [13]: 16.00
UAS7 Percent change from baseline Mean (SD) [13]: −60.98 (NC) %
UAS7 Percent change from baseline Median [13]: −60.98%
Non-responder, UAS7 reduction from baseline of 10 points or more [14]: 19 (51.4) n (%)
OR for rilzabrutinib vs. placebo, UAS7 reduction of 10 points or more [14]: 1.190
RRD (%) for rilzabrutinib vs. placebo, UAS7 reduction of 10 points or more [14]: 4.1 %
Responder, UAS7 reduction from baseline of 10 points or more [14]: 18 (48.6) n (%)
